Assay results: patent US10875875B2, “Propionic acid derivatives and methods of use thereof” (Aviara Pharmaceuticals, Inc., priority 2017, dated 2020)

Molecular target: α4β1 (Homo sapiens, UniProt P05556+P13612)
Assay: α4β1 integrin inhibition, IC50
Assay type: binding
Details: read-out: α4β1 IC50

α4β1, sequence (P13612 34-1032): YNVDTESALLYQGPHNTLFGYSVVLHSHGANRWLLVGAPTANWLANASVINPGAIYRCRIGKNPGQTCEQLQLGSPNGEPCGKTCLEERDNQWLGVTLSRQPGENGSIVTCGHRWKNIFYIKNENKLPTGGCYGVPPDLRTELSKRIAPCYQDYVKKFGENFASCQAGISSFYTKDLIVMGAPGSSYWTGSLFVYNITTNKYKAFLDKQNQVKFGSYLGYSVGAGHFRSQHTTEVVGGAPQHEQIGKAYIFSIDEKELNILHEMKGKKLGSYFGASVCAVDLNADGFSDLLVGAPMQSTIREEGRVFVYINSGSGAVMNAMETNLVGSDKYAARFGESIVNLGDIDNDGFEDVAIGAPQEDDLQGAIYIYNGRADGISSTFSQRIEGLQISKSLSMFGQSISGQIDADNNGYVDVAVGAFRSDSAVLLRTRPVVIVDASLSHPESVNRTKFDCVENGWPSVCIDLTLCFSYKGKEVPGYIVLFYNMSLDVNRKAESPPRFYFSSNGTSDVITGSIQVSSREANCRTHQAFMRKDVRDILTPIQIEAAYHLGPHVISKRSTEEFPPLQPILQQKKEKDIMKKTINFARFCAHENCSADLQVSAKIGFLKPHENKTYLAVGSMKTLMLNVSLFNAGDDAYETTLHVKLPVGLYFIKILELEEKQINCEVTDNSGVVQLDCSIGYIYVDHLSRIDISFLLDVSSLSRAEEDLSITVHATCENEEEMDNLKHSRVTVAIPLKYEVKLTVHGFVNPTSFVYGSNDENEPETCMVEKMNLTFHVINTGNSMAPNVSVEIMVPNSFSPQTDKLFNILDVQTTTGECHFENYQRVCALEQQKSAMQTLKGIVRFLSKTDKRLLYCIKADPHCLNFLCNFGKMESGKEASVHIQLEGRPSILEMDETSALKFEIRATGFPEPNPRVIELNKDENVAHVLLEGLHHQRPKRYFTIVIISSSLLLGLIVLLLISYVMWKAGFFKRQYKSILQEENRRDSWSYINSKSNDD
α4β1, sequence (P05556 21-798): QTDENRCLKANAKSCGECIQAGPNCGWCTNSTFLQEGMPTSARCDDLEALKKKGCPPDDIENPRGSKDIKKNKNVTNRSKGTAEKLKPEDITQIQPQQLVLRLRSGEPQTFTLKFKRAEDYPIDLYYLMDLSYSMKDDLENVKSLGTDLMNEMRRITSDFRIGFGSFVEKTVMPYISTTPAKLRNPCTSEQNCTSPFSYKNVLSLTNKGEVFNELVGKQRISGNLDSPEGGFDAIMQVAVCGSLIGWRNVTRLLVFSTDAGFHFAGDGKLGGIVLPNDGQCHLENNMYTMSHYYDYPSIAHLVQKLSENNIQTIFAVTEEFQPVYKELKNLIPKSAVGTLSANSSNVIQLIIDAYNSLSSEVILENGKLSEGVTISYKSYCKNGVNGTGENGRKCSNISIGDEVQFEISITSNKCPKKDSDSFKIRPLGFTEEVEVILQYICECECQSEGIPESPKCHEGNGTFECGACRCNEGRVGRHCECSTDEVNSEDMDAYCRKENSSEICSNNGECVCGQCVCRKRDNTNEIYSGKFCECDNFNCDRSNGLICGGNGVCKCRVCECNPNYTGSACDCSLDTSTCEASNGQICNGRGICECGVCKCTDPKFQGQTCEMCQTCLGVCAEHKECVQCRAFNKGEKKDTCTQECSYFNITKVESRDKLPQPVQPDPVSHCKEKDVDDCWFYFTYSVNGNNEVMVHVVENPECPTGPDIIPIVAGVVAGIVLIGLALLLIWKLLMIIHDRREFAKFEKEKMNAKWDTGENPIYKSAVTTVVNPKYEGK

Structure (SMILES) | IC50 [nM]
Cc1cn(C)c(=O)c(NC(=O)N[C@@H](CC(=O)O)c2cccc(-c3ccccc3)c2C)c1O [1-500, sodium (S)-3-(3-(1,5-dimethyl-4-oxido-2-oxo-1,2-dihydropyridin-3-yl)ureido)-3-(2-methylbiphenyl-3-yl)propanoate] | > 200
Cc1cn(C)c(=O)c(NC(=O)NC(CC(=O)O)c2cccc(-c3cc(Cl)c(F)cc3F)c2)c1O (stereo not drawn) [1-503, sodium 3-(5′-chloro-2′,4′-difluorobiphenyl-3-yl)-3-(3-(1,5-dimethyl-4-oxido-2-oxo-1,2-dihydropyridin-3-yl)ureido)propanoate] | < 200
Cc1cn(C)c(=O)c(NC(=O)NC(CC(=O)O)c2cccc(-c3ccc(Cl)cc3Cl)c2)c1O (stereo not drawn) [1-511, sodium 3-(2′,4′-dichlorobiphenyl-3-yl)-3-(3-(1,5-dimethyl-4-oxido-2-oxo-1,2-dihydropyridin-3-yl)ureido)propanoate] | < 200
Cn1c(=O)c(NC(=O)N[C@@H](CC(=O)O)c2cccc(-c3ccc(F)cc3F)c2)c(O)c2cccnc21 [1-526, sodium (S)-3-(2′,4′-difluorobiphenyl-3-yl)-3-(3-(1-methyl-4-oxido-2-oxo-1,2-dihydro-1,8-naphthyridin-3-yl)ureido)propanoate] | < 200
COc1cccc(-c2csc([C@H](CC(=O)O)NC(=O)Nc3c(O)ccn(C)c3=O)c2)c1 [1-528, sodium (S)-3-(4-(3-methoxyphenyl)thiophen-2-yl)-3-(3-(1-methyl-4-oxido-2-oxo-1,2-dihydropyridin-3-yl)ureido)propanoate] | < 20
COc1ccc([C@H](CC(=O)O)NC(=O)Nc2c(O)ccn(C)c2=O)cc1-c1ccccc1 [1-529, sodium (S)-3-(6-methoxybiphenyl-3-yl)-3-(3-(1-methyl-4-oxido-2-oxo-1,2-dihydropyridin-3-yl)ureido)propanoate] | < 20
Cn1ccc(O)c(NC(=O)N[C@@H](CC(=O)O)c2cc(-c3cccc(Cl)c3)cs2)c1=O [1-530, sodium (S)-3-(4-(3-chlorophenyl)thiophen-2-yl)-3-(3-(1-methyl-4-oxido-2-oxo-1,2-dihydropyridin-3-yl)ureido)propanoate] | < 20
CCn1ccc(O)c(NC(=O)N[C@@H](CC(=O)O)c2cccc(-c3ccc(F)cc3F)c2)c1=O [1-531, sodium (S)-3-(2′,4′-difluorobiphenyl-3-yl)-3-(3-(1-ethyl-4-oxido-2-oxo-1,2-dihydropyridin-3-yl)ureido)propanoate] | < 20
Cn1ccc(O)c(NC(=O)N[C@@H](CC(=O)O)c2cccc(-c3cccs3)c2)c1=O [1-532, sodium (S)-3-(3-(1-methyl-4-oxido-2-oxo-1,2-dihydropyridin-3-yl)ureido)-3-(3-(thiophen-2-yl)phenyl)propanoate] | < 20
COc1ccc([C@H](CC(=O)O)NC(=O)Nc2c(O)ccn(C)c2=O)cc1-c1cccc(Cl)c1 [1-534, sodium (S)-3-(3′-chloro-6-methoxybiphenyl-3-yl)-3-(3-(1-methyl-4-oxido-2-oxo-1,2-dihydropyridin-3-yl)ureido)propanoate] | < 20
COc1ccc([C@H](CC(=O)O)NC(=O)Nc2c(O)ccn(C)c2=O)cc1-c1cccc(OC(F)(F)F)c1 [1-535, sodium (S)-3-(6-methoxy-3′-(trifluoromethoxy)biphenyl-3-yl)-3-(3-(1-methyl-4-oxido-2-oxo-1,2-dihydropyridin-3-yl)ureido)propanoate] | < 20
COc1ccc([C@H](CC(=O)O)NC(=O)Nc2c(O)ccn(C)c2=O)cc1-c1ccc(OC(F)(F)F)cc1 [1-536, sodium (S)-3-(6-methoxy-4′-(trifluoromethoxy)biphenyl-3-yl)-3-(3-(1-methyl-4-oxido-2-oxo-1,2-dihydropyridin-3-yl)ureido)propanoate] | < 20
Cn1ccc(O)c(NC(=O)N[C@@H](CC(=O)O)c2cccc(-c3ccc(Cl)s3)c2)c1=O [1-538, sodium (S)-3-(3-(5-chlorothiophen-2-yl)phenyl)-3-(3-(1-methyl-4-oxido-2-oxo-1,2-dihydropyridin-3-yl)ureido)propanoate] | < 20

More lines, now with the values ahead:

IC50 [nM] | Structure (SMILES)
< 20 | COc1cccc(-c2cccc([C@H](CC(=O)O)NC(=O)Nc3c(O)ccn(C)c3=O)c2)c1 [1-501, sodium (S)-3-(3′-methoxybiphenyl-3-yl)-3-(3-(1-methyl-4-oxido-2-oxo-1,2-dihydropyridin-3-yl)ureido)propanoate]
< 20 | COc1cccc(-c2cccc([C@H](CC(=O)O)NC(=O)Nc3c(O)c(C)cn(C)c3=O)c2)c1OC [1-504, sodium (S)-3-(2′,3′-dimethoxybiphenyl-3-yl)-3-(3-(1,5-dimethyl-4-oxido-2-oxo-1,2-dihydropyridin-3-yl)ureido)propanoate]
< 20 | Cn1ccc(O)c(NC(=O)N[C@@H](CC(=O)O)c2cccc(-c3ccccc3)c2)c1=O [1-505, sodium (S)-3-(biphenyl-3-yl)-3-(3-(1-methyl-4-oxido-2-oxo-1,2-dihydropyridin-3-yl)ureido)propanoate]
< 20 | Cn1ccc(O)c(NC(=O)N[C@@H](CC(=O)O)c2cccc(-c3cccc(Cl)c3)c2)c1=O [1-506, sodium (S)-3-(3′-chlorobiphenyl-3-yl)-3-(3-(1-methyl-4-oxido-2-oxo-1,2-dihydropyridin-3-yl)ureido)propanoate]
< 20 | Cn1ccc(O)c(NC(=O)N[C@@H](CC(=O)O)c2cccc(-n3cccc3)c2)c1=O [1-507, sodium (S)-3-(3-(1H-pyrrol-1-yl)phenyl)-3-(3-(1-methyl-4-oxido-2-oxo-1,2-dihydropyridin-3-yl)ureido)propanoate]
< 20 | COc1ccc(-c2cccc([C@H](CC(=O)O)NC(=O)Nc3c(O)ccn(C)c3=O)c2)cn1 [1-508, sodium (S)-3-(3-(6-methoxypyridin-3-yl)phenyl)-3-(3-(1-methyl-4-oxido-2-oxo-1,2-dihydropyridin-3-yl)ureido)propanoate]
< 20 | COc1cccc(-c2cccc([C@H](CC(=O)O)NC(=O)Nc3c(O)ccn(C)c3=O)c2)c1F [1-509, sodium (S)-3-(2′-fluoro-3′-methoxybiphenyl-3-yl)-3-(3-(1-methyl-4-oxido-2-oxo-1,2-dihydropyridin-3-yl)ureido)propanoate]
< 20 | Cn1ccc(O)c(NC(=O)N[C@@H](CC(=O)O)c2cccc(-c3ccc(OC(F)(F)F)cc3)c2)c1=O [1-510, sodium (S)-3-(3-(1-methyl-4-oxido-2-oxo-1,2-dihydropyridin-3-yl)ureido)-3-(4′-(trifluoromethoxy)biphenyl-3-yl)propanoate]
< 20 | Cn1ccc(O)c(NC(=O)N[C@@H](CC(=O)O)c2cccc(-c3ccccc3OC(F)(F)F)c2)c1=O [1-512, sodium (S)-3-(3-(1-methyl-4-oxido-2-oxo-1,2-dihydropyridin-3-yl)ureido)-3-(2′-(trifluoromethoxy)biphenyl-3-yl)propanoate]
< 20 | Cn1c2c(c(O)c(NC(=O)N[C@@H](CC(=O)O)c3cccc(-c4ccc(F)cc4F)c3)c1=O)CCC2 [1-513, sodium (S)-3-(2′,4′-difluorobiphenyl-3-yl)-3-(3-(1-methyl-4-oxido-2-oxo-2,5,6,7-tetrahydro-1H-cyclopenta[b]pyridin-3-yl)ureido)propanoate]
< 20 | Cn1ccc(O)c(NC(=O)N[C@@H](CC(=O)O)c2cccc(-c3cccc(OC(F)(F)F)c3)c2)c1=O [1-514, sodium (S)-3-(3-(1-methyl-4-oxido-2-oxo-1,2-dihydropyridin-3-yl)ureido)-3-(3′-(trifluoromethoxy)biphenyl-3-yl)propanoate]
< 20 | Cn1c(=O)c(NC(=O)N[C@@H](CC(=O)O)c2cccc(-c3ccc(F)cc3F)c2)c(O)c2sccc21 [1-515, sodium (S)-3-(2′,4′-difluorobiphenyl-3-yl)-3-(3-(4-methyl-7-oxido-5-oxo-4,5-dihydrothieno[3,2-b]pyridin-6-yl)ureido)propanoate]
< 20 | Cn1ccc(O)c(NC(=O)N[C@@H](CC(=O)O)c2cccc(-c3ccc4c(c3)OCO4)c2)c1=O [1-516, sodium (S)-3-(3-(benzo[d][1,3]dioxol-5-yl)phenyl)-3-(3-(1-methyl-4-oxido-2-oxo-1,2-dihydropyridin-3-yl)ureido)propanoate]
< 20 | Cc1cn(C)c(=O)c(NC(=O)N[C@@H](CC(=O)O)c2cccc(-c3ccc4c(c3)OCO4)c2)c1O [1-517, sodium (S)-3-(3-(benzo[d][1,3]dioxol-5-yl)phenyl)-3-(3-(1,5-dimethyl-4-oxido-2-oxo-1,2-dihydropyridin-3-yl)ureido)propanoate]
< 20 | Cn1ccc(O)c(NC(=O)N[C@@H](CC(=O)O)c2cccc(-n3ncc4ccccc43)c2)c1=O [1-518, sodium (S)-3-(3-(1H-indazol-1-yl)phenyl)-3-(3-(1-methyl-4-oxido-2-oxo-1,2-dihydropyridin-3-yl)ureido)propanoate]
< 20 | COc1ccc([C@H](CC(=O)O)NC(=O)Nc2c(O)ccn(C)c2=O)cc1-c1ccc(F)cc1F [1-519, sodium (S)-3-(2′,4′-difluoro-6-methoxybiphenyl-3-yl)-3-(3-(1-methyl-4-oxido-2-oxo-1,2-dihydropyridin-3-yl)ureido)propanoate]
< 20 | CCn1ccc2ccc(-c3cccc([C@H](CC(=O)O)NC(=O)Nc4c(O)ccn(C)c4=O)c3)cc21 [1-521, sodium (S)-3-(3-(1-ethyl-1H-indol-6-yl)phenyl)-3-(3-(1-methyl-4-oxido-2-oxo-1,2-dihydropyridin-3-yl)ureido)propanoate]
< 20 | Cn1ccc(O)c(NC(=O)N[C@@H](CC(=O)O)c2cccc(-n3cccn3)c2)c1=O [1-522, sodium (S)-3-(3-(1H-pyrazol-1-yl)phenyl)-3-(3-(1-methyl-4-oxido-2-oxo-1,2-dihydropyridin-3-yl)ureido)propanoate]
< 20 | Cn1ccc(O)c(NC(=O)N[C@@H](CC(=O)O)c2cc(-c3ccc(F)cc3F)cs2)c1=O [1-523, sodium (S)-3-(4-(2,4-difluorophenyl)thiophen-2-yl)-3-(3-(1-methyl-4-oxido-2-oxo-1,2-dihydropyridin-3-yl)ureido)propanoate]
< 20 | COc1cccc(-c2cc([C@H](CC(=O)O)NC(=O)Nc3c(O)ccn(C)c3=O)ccc2OC)c1 [1-524, sodium (S)-3-(3′,6-dimethoxybiphenyl-3-yl)-3-(3-(1-methyl-4-oxido-2-oxo-1,2-dihydropyridin-3-yl)ureido)propanoate]
